Key:
[1] = system: LoVo colorectal cancer cell line; assay: Cell viability (Cell Titer-Glo) in LoVo cells; assay type: cell-based; conditions: Homo sapiens, replete media, 48 h incubation, 24 h recovery; for IC50: first value of IC50/IC90; for IC90: second value of IC50/IC90
Experimental: (§1) Biological activity was assessed in vitro in the following pancreatic cancer and colorectal cancer cell lines. • Pancreatic cancer cell lines • Panc-1: non-metastatic; mutations: KRAS, TP53 • AsPC-1: metastatic; mutations: KRAS, TP53, CDKN2A, MAP2K4 • Colorectal cancer cell lines • LoVo: metastatic; mutations: APC, KRAS, FBXW7, […] • SW620: metastatic; mutations: KRAS, TP53
(§2) Tumor cells were maintained at 37° C. in a humidified 5% CO2 atmosphere in T75 tissue culture flask containing 10 mL of RPMI 1640 (PANC-1), DMEM (AsPC-1), F12K (LoVo) or L15 (SW620), containing 2 mM L-glutamine, 10% fetal bovine serum (FBS) and 1% penicillin and streptomycin. The tumor cells were split at a ratio of 1:5 every 4-5 days by trypsinization and suspended in fresh medium in a new flask. Cells were harvested for experiments at 80-95% confluency.
(§3) PANC-1 cells in RPMI medium with 10% FBS (12,000 cells/well in 96 well plate) were incubated with increasing concentrations (12.5, 25, 50, 100, 150, and 200 µM), of test compound at 37° C. under 5% CO2 for 48 hours. Cells were undergone for another 24 hr recovery, in fresh RPMI media without serum. Cell viability was assessed using the Promega Cell Titer-Glo assay kit, following their protocol. Cell viability was measured based on the amount of ATP produced by the total number of cells present in each well using FLUOSTAR OPTIMA plate reader in the Luminescence mode. Production of ATP in Luminescence unit is directly proportional to the number of live cells. % live cells were calculated and SEM was also calculated as average of 3 replica wells.
(§4) Test compounds were screened for activity in AsPC-1 cells and the colon cancer cells using similar procedures but replacing RPMI with the respective media indicated above for the initial 48 hour incubation (i.e., DMEM (AsPC-1), F12K ( LoVo ), or L15 (SW620)), and RPMI was always used for the 24 hour recovery. Cells seeded for AsPc-1 (25,000 cells/well), LoVo (25,000 cells/well) and SW620 (25,000 cells/well) to achieve ~ 50% confluency after 24 hrs of seeding.

[2] = system: Panc-1 pancreatic cancer cell line; assay: Cell viability (Cell Titer-Glo) in Panc-1 cells; assay type: cell-based; conditions: Homo sapiens, replete media, 48 h incubation, 24 h recovery; for IC50: first value of IC50/IC90; for IC90: second value of IC50/IC90
Experimental: as §1, §2, §3

[3] = system: AsPC-1 pancreatic cancer cell line; assay: Cell viability (Cell Titer-Glo) in AsPC-1 cells; assay type: cell-based; conditions: Homo sapiens, ASPC1, replete media, 48 h incubation, 24 h recovery; for IC50: first value of IC50/IC90
Experimental: as §1, §2, §3, §4

[4] = system: SW620 colorectal cancer cell line; assay: Cell viability (Cell Titer-Glo) in SW620 cells; assay type: cell-based; conditions: Homo sapiens, SW-620, replete media, 48 h incubation, 24 h recovery; for IC50: first value of IC50/IC90
Experimental: as §1, §2, §3, §4

[5] = after IV dosing; Pardee et al. 2014; cited from earlier work

| SMILES | IC50 [1] [µM] | IC90 [1] [µM] | IC50 [2] [µM] | IC90 [2] [µM] | IC50 [3] [µM] | IC90 ([3]; second value of IC50/IC90) [µM] | IC50 [4] [µM] | IC90 ([4]; second value of IC50/IC90) [µM] | half-life [5] [h] |
| --- | --- | --- | --- | --- | --- | --- | --- | --- | --- |
| [2H]C(O)(CCC(CCSCc1ccccc1)SCc1ccccc1)CC(=O)O (centres unmarked) [Compound I-77] | > 300 | – | > 300 | – | 314 | – | > 300 | – | – |
| [2H]C([2H])(CC(=O)O)C([2H])([2H])CC(CCSCc1ccccc1)SCc1ccccc1 (centres unmarked) [Compound I-24, 6,8-bis(benzylsulfanyl)-3,3,4,4-tetradeuterio-octanoic acid] | > 300 | – | > 300 | – | – | – | – | – | – |
| O=C(O)CCCCC(CCSCc1ccccc1)SCc1ccccc1 (centres unmarked) [CPI-613, 6,8-bis(benzylsulfanyl)octanoic acid] | – | – | – | – | – | – | – | – | 1 to 2 |
| [2H]C([2H])(CCC(CCSCc1ccccc1)SCc1ccccc1)CC(=O)O (centres unmarked) [Compound I-10, 6,8-bis(benzylsulfanyl)-3,3-dideuterio-octanoic acid] | > 300 | – | > 300 | – | – | – | – | – | – |

Second part, led by results:

| IC50 [1] [µM] | IC90 [1] [µM] | IC50 [2] [µM] | IC90 [2] [µM] | IC50 [3] [µM] | IC90 ([3]; second value of IC50/IC90) [µM] | IC50 [4] [µM] | IC90 ([4]; second value of IC50/IC90) [µM] | SMILES | half-life [5] [h] |
| --- | --- | --- | --- | --- | --- | --- | --- | --- | --- |
| 181 | 254 | 44 | 282 | – | – | – | – | [2H]C(O)(CCC(CCSCc1ccccc1)SCc1ccccc1)CC(=O)N1CCNCC1 (centres unmarked) [Compound I-79] | – |
| 26 | 39 | – | 73 | 28 | 65 | 28 | 37 | [2H]C(O)(CCC(CCSCc1ccccc1)SCc1ccccc1)CC(N)=O (centres unmarked) [Compound I-78] | – |

— patent publication US20230348373A1, “DEUTERATED DERIVATIVES OF 6,8-BIS(BENZYLSULFANYL)OCTANOIC ACID” (Rafael Pharmaceuticals, Inc., priority 2019, published 2023)
